# Laboratory results from EP4652842A1, “BIOPESTICIDE COMPOSITION, PROCEDURE OF OBTAIN THEREOF, AND METHOD FOR CONTROLLING AND TREATING BROAD SPECTRUM OF PESTS, DISEASES AND WEEDS IN PLANTS” (priority 2024, dated 2025).
# Read-outs that look alike come from different tables or passages of the source.
# Columns and labels:
# Assay type in all cases: in vivo
# Tuta absoluta [1] = test system: Tuta absoluta
# Description: (§1) The objective of this bioassay is to evaluate the effect of test items on the mortality of adult insects and mites in a short/medium-term (0-24 hours) by topical application. Tests were conducted in plastic net bottles. A total of 10 replicates for each treatment (tests items and negative control) were used in each experiment and temporarily replicated 3 times along the week. (Figure 12)
# (§2) Numbers of live and dead adult insects and mites were counted at 24 h post-treatment. Adult insects and mites were considered dead if no movement was apparent after probing with the tip of a fine brush under stereoscopic magnifying glass. Mortality percentage was calculated in treatment and control groups. If the mortality in negative control is above 20% the test was discarded.
# (§3) Means of %M were compared using a one-way analysis of variance (ANOVA, p<0.05) and LSD-test as a post hoc test to verify significant differences between single treatments using Statgraphics Centurion XVII software. When nonnormality in the data was detected, an additional Kruskal-Wallis test was conducted, and Box-and-Whisker Plot (Median Notch) was presented.
# (§4) The different compositions were tested by trials that were carried out on different relevant insect pests and acari including: Tuta absoluta, Bemisia tabaci, Myzus persicae, Frankliniella occidentalis and Tetranychus urticae. The bioassay type used was contact mortality (Leaf Disc Method) described in the example 4.
# (§5) The main treatments included in the comparison of efficacy are: Group A: Individual solvents: Benzyl alcohol, ethanol, isopropanol, and water were applied directly (purity as in the label) diluted at 0.3% (3cc/L) in water without formulation. Group B: Vegetable matrix extracts were extracted with different solvents such as benzyl alcohol, ethanol, isopropanol, and water.
# Tetranychus urticae [2] = test system: Tetranychus urticae
# Description: as §1, §2, §3, §4, §5
# [3] = test system: Frankliniella occidentalis
# Description: as §1, §2, §3, §4, §5
# Bemisia tabaci [4] = test system: Bemisia tabaci
# Description: as §1, §2, §3, §4, §5
# Myzus persicae [5] = test system: Myzus persicae
# Description: as §1, §2, §3, §4, §5
# Tetranychus urticae [6] = test: Antifeedant effects: settling inhibition and oviposition inhibition; conditions: T. urticae
# Description: The concept of antifeedant as a substance that acts on insect behaviour involves feeding reduction (FR), settling inhibition (SI) and oviposition Inhibition (IO). In some cases, settling inhibition is considered as indirect repellent effect. […] It is based on the preference of target adults for treated and non-treated host plants located in the same entomological cages (in plant assays). The experiments were conducted in bugdorm®-type net cages (Figure 13). Four similar host plants (two leaf stage) were transferred to a same pot (Figure 14). Two of the plants were sprayed with biopesticide compositions and the others with the control and dried for 30 minutes. Target adults were released at the site that was equidistant from the two plants. A total of 5 cages for each treatment (four plants each) and control were used in each experiment and replicated 3 times in different days. […] After 24 hours, the number of settled adults in treated and non-treated plants and the number of laid eggs were recorded on the upper and underside of each leaf. Number of adults and eggs were counted under a stereomicroscope. […] T= Settling of treated plants; C= Setting of control plants. […] Means of %Sl and %IO were analysed for significance by the non-parametric Wilcoxon signed-rank test (p < 0.05).
# [7] = test system: Frankliniella occidentalis; test: Antifeedant effects: feeding reduction; conditions: F. occidentalis
# Bemisia tabaci [8] = test: Antifeedant effects: settling inhibition
# Description: (§6) The concept of antifeedant as a substance that acts on insect behaviour involves feeding reduction (FR), settling inhibition (SI) and oviposition Inhibition (IO). In some cases, settling inhibition is considered as indirect repellent effect. […] It is based on the preference of target adults for treated and non-treated host plants located in the same entomological cages (in plant assays). The experiments were conducted in bugdorm®-type net cages (Figure 13). Four similar host plants (two leaf stage) were transferred to a same pot (Figure 14). Two of the plants were sprayed with biopesticide compositions and the others with the control and dried for 30 minutes. Target adults were released at the site that was equidistant from the two plants. A total of 5 cages for each treatment (four plants each) and control were used in each experiment and replicated 3 times in different days. […] After 24 hours, the number of settled adults in treated and non-treated plants and the number of laid eggs were recorded on the upper and underside of each leaf. Number of adults and eggs were counted under a stereomicroscope. […] T= Settling of treated plants; C= Setting of control plants. Means of %Sl and %IO were analysed for significance by the non-parametric Wilcoxon signed-rank test (p < 0.05).
# Myzus persicae [9] = test: Antifeedant effects: settling inhibition
# Description: as §6
# Tuta absoluta [10] = test: Antifeedant effects: feeding reduction
# [11] = %SI settling inhibition index, at sublethal concentration 0.021 %
# [12] = antifeedant/repellent, concentration under the lethal EC50
# [13] = %FR feeding reduction index, at sublethal concentration 0.014 %
structure (smiles),measurement,setting,value
CC(C)=CCCC(C)=CC=O [Citral],%M,Tuta absoluta [1]; in vivo,0.0 ±0.0%
same,%M,Tetranychus urticae [2]; in vivo,16.9 ± 3.9%
same,%M,[3]; in vivo,27.8 ± 3.6%
same,%M,Bemisia tabaci [4]; in vivo,20.7 ±7.3%
same,%M,Myzus persicae [5]; in vivo,30.2 ±5.8%
COC(=O)C=Cc1ccccc1 [Methyl cinnamate],%M,"Tuta absoluta [1]; Tuta absoluta, at sublethal concentration 0.021 %, Abbott's corrected",17.5 ± 5.9%
same,Sublethal concentration (%),"Tuta absoluta [1]; Tuta absoluta, contact mortality, concentration under the lethal EC50",0.021%
same,%M,"Tetranychus urticae [2]; Tetranychus urticae, at sublethal concentration 0.021 %, Abbott's corrected",24.7 ± 6.9%
same,Sublethal concentration (%),"Tetranychus urticae [2]; Tetranychus urticae, contact mortality, concentration under the lethal EC50",0.021%
same,%M,"[3]; Frankliniella occidentalis, at sublethal concentration 0.021 %, Abbott's corrected",25.6 ± 4.6%
same,Sublethal concentration (%),"[3]; Frankliniella occidentalis, contact mortality, concentration under the lethal EC50",0.021%
same,%M,"Bemisia tabaci [4]; Bemisia tabaci, at sublethal concentration 0.014 %, Abbott's corrected",14.5 ± 9.8%
same,Sublethal concentration (%),"Bemisia tabaci [4]; Bemisia tabaci, contact mortality, concentration under the lethal EC50",0.014%
same,%M,"Myzus persicae [5]; Myzus persicae, at sublethal concentration 0.014 %, Abbott's corrected",17.1 ± 4.7%
same,Sublethal concentration (%),"Myzus persicae [5]; Myzus persicae, contact mortality, concentration under the lethal EC50",0.014%
same,%SI/ %FR,Tetranychus urticae [6]; [11],20.0 ± 4.6%
same,Sublethal concentration (%),Tetranychus urticae [6]; [12],0.021%
same,%SI/ %FR,[7]; [13],22.2 ± 2.1%
same,Sublethal concentration (%),[7]; [12],0.014%
same,%SI/ %FR,Bemisia tabaci [8]; [11],14.4 ± 3.6%
same,Sublethal concentration (%),Bemisia tabaci [8]; [12],0.021%
same,%SI/ %FR,"Myzus persicae [9]; %SI settling inhibition index, at sublethal concentration 0.014 %",17.9 ± 6.7%
same,Sublethal concentration (%),Myzus persicae [9]; [12],0.014%
same,%SI/ %FR,Tuta absoluta [10]; [13],30.4 ± 5.7%
same,Sublethal concentration (%),Tuta absoluta [10]; [12],0.014%
